According to paper PMC4535766, “Antiprotozoal Activity Profiling of Approved Drugs: A Starting Point toward Drug Repositioning” (PLoS ONE, 2015):
Structures can show the parent of a compound that is named as a salt. Where two headings read alike, the source gives them in different places.

Assays:
Cytotoxicity on L6 cells = conditions: rat
Description: (§1) Drug stock solutions (10mg/ml) were in DMSO (100%). […] Selectivity index (SI) was calculated as IC50 L6 cells/IC50 parasite.

[1] = system: T. cruzi, strain Tulahuen C4, intracellular amastigotes; assay: microbe, parasite or virus in culture; conditions: for IC50: Trypanosoma cruzi, TULAHUEN
Description: as §1

[2] = system: T. b. rhodesiense strain STIB 900, trypomastigotes; assay: In vitro activity against T. b. rhodesiense, serial drug dilution assay; conditions: for IC50: Trypanosoma brucei, read-out: IC50 T. b. rhod.; for selectivity ratio: rat, L6 cells versus T. b. rhodesiense STIB 900 trypomastigotes
Description: as §1

P. falciparum strain K1 = assay: In vitro activity against P. falciparum, serial drug dilution assay; conditions: for IC50: Plasmodium falciparum; for selectivity ratio: rat, Selectivity index: IC50 Cytotoxicity L6/ IC50 P. falciparum
Description: as §1

[3] = Cytotoxicity on macrophages infected with L. donovani; assay type: cell-based, mouse; conditions: mouse; for IC50 at 96 h: macrophages infected with L. donovani, read-out: IC50 Cytotox. mac.inf.
[4] = system: intracellular amastigotes of L. donovani strain MHOM-ET-67/L82; assay: Activity against Leishmania donovani intracellular amastigotes in mouse peritoneal macrophages; conditions: Leishmania donovani, Peritoneal macrophage, in Mus musculus
Description: After 24 h 1.2 x 10^5 amastigote L. donovani in 100 μl were added. The amastigotes were taken from an axenic culture grown at pH 5.4. Four hours later, the medium containing free amastigote forms was removed and replaced by fresh medium. The next day the medium was replaced by medium with or without a serial drug dilution of seven 3-fold dilution steps covering a range from 30 to 0.04 μg/ml. Parasite growth in the presence of the drug was compared to control wells. After 96 h of incubation, the medium was removed and the slides fixed with methanol for 10 min followed by staining with a 10% Giemsa solution. Infected and non-infected macrophages were counted for the control cultures and those exposed to the serial drug dilutions. The infection rates were determined. The results were expressed as a percentage reduction in parasite burden compared to control wells, and the IC50 was calculated by linear regression analysis. The collection of mouse peritoneal macrophages was done at the Swiss Tropical and Public Health Institute (Basel) according to the rules and regulations for the protection of animal rights ("Tierschutzverordnung") of the Swiss "Bundesamt für Veterinärwesen".

[5] = system: axenic amastigotes of L. donovani, strain MHOM-ET-67/L82; assay: In vitro activity against L. donovani axenic amastigotes, serial drug dilution assay; assay type: cell-based, Leishmania donovani; conditions: Leishmania donovani
Description: as §1

[6] = L6 cells, IC50 Cytotox. L6, L6 cells, means of two independent assays
[7] = mouse peritoneal macrophages infected with L. donovani
[8] = 96 h, read-out: IC50 L. don. intracell
[9] = axenic amastigotes, strain MHOM-ET-67/L82, means of two independent assays, read-out: IC50 L. don. axen.

`CC(N)C12CC3CC(CC(C3)C1)C2` (stereo not drawn) [Rimantadine] gave an IC50 (Cytotoxicity on L6 cells; [6]) of 311 µM, an IC50 ([1]; read-out: IC50 T. cruzi) of 321 µM and an IC50 [2] of 13.8 µM. The selectivity ratio [2] was 23, the IC50 (P. falciparum strain K1; K1, read-out: IC50 P. falc. K1) was 0.97 µM and the “Activity against P. falciparum (in words)” value (P. falciparum strain K1; in vitro) was “selective activities”. It also gave a selectivity ratio (P. falciparum strain K1) of 321, an IC50 at 96 h [3, 7] of over 167 µM and an IC50 [4, 8] of over 167 µM. For the same compound, the IC50 [5, 9] was 427 µM.

For `CC(C)(C)NC(=O)[C@@H]1C[C@@H]2CCCC[C@@H]2CN1C[C@@H](O)[C@H](Cc1ccccc1)NC(=O)[C@H](CC(N)=O)NC(=O)c1ccc2ccccc2n1` [Saquinavir], the IC50 (Cytotoxicity on L6 cells; IC50 Cytotox. L6) was 18.2 µM, the IC50 ([1]; read-out: IC50 T. cruzi) was 17.1 µM and the IC50 [2] was 12.3 µM. The IC50 (P. falciparum strain K1; K1, read-out: IC50 P. falc. K1) was 11.9 µM, the IC50 at 96 h [3] was over 44.7 µM and the IC50 [4, 8] was over 44.7 µM. For the same compound, the IC50 [5, 9] was 77.4 µM.

In the case of `Cc1cn([C@H]2C=C[C@@H](CO)O2)c(=O)[nH]c1=O` [Stavudine], the IC50 (Cytotoxicity on L6 cells; [6]) is reported as 266 µM, the IC50 ([1]; read-out: IC50 T. cruzi) is reported as 341 µM and the IC50 [2] is reported as 120 µM. It also gave an IC50 (P. falciparum strain K1; K1, read-out: IC50 P. falc. K1) of 186 µM, an IC50 at 96 h [3, 7] of over 134 µM and an IC50 [4, 8] of over 134 µM. For the same compound, the IC50 [5, 9] was over 446 µM.

With `CN1CC(=O)N2[C@H](c3ccc4c(c3)OCO4)c3[nH]c4ccccc4c3C[C@@H]2C1=O` [Tadalafil] the IC50 (Cytotoxicity on L6 cells; IC50 Cytotox. L6) was 221 µM, the IC50 ([1]; read-out: IC50 T. cruzi) was 8.6 µM and the “Selectivity index: IC50 Cytotoxicity L6/ IC50 T. cruzi” value ([1]; rat) was 26. The selectivity ratio ([1]; rat, Selectivity index: IC50 Cytotoxicity L6/ IC50 T. cruzi) was over 26, the IC50 [2] was 97.6 µM and the IC50 (P. falciparum strain K1; K1, read-out: IC50 P. falc. K1) was over 12.8 µM. The IC50 at 96 h [3] was over 77 µM, the IC50 [4, 8] was over 77 µM and the IC50 [5, 9] was 40.1 µM.

Compound `COc1cc(C)c2c(Oc3cccc(C(F)(F)F)c3)c(OC)cc(NC(C)CCCN)c2n1` (stereo not drawn) [Tafenoquine] has an IC50 (Cytotoxicity on L6 cells; [6]) of 5.52 µM, an IC50 ([1]; read-out: IC50 T. cruzi) of 6.11 µM and an IC50 [2] of 1.42 µM. It also gave an IC50 (P. falciparum strain K1; K1, read-out: IC50 P. falc. K1) of 0.27 µM, a selectivity ratio (P. falciparum strain K1) of 20 and an IC50 at 96 h [3, 7] of 6.47 µM. For the same compound, the IC50 [4, 8] was 2.16 µM and the IC50 [5, 9] was 17.9 µM.

Work on `CN(C/C=C/C#CC(C)(C)C)Cc1cccc2ccccc12` [Terbinafine (Hydrochloride), Terbinafine] yielded an IC50 (Cytotoxicity on L6 cells; [6]) of 47 µM, an IC50 ([1]; read-out: IC50 T. cruzi) of 40.9 µM and an IC50 [2] of 95.2 µM. For the same compound, the IC50 (P. falciparum strain K1; K1, read-out: IC50 P. falc. K1) was 7.72 µM, the IC50 at 96 h [3, 7] was over 91.5 µM and the IC50 [4, 8] was 69.5 µM. For the same compound, the IC50 [5, 9] was 23 µM.

With `Nc1nc(N)c2nc(-c3ccccc3)c(N)nc2n1` [Triamterene] the IC50 (Cytotoxicity on L6 cells; IC50 Cytotox. L6) was 8.53 µM, the IC50 ([1]; read-out: IC50 T. cruzi) was 22.7 µM and the IC50 [2] was 21.7 µM. For the same compound, the IC50 (P. falciparum strain K1; K1, read-out: IC50 P. falc. K1) was 17.2 µM, the IC50 at 96 h [3] was over 11.8 µM and the IC50 [4, 8] was over 11.8 µM. For the same compound, the IC50 [5, 9] was 307 µM.

Work on `CN1CCN(CCCN2c3ccccc3Sc3ccc(C(F)(F)F)cc32)CC1` [Trifluoperazine] yielded an IC50 (Cytotoxicity on L6 cells; [6]) of 11 µM, an IC50 ([1]; read-out: IC50 T. cruzi) of 10.1 µM and an IC50 [2] of 1.23 µM. The IC50 (P. falciparum strain K1; K1, read-out: IC50 P. falc. K1) was 1.48 µM, the IC50 at 96 h [3] was 24.5 µM and the IC50 [4, 8] was over 7.36 µM. The IC50 [5, 9] was 52.9 µM.

In the case of `CN(C)CCCN1c2ccccc2Sc2ccc(C(F)(F)F)cc21` [Triflupromazine], the IC50 (Cytotoxicity on L6 cells; [6]) is reported as 18.5 µM, the IC50 ([1]; read-out: T. cruzi IC50) is reported as 15 µM and the IC50 [2] is reported as 1.42 µM. For the same compound, the selectivity ratio [2] was 13, the IC50 (P. falciparum strain K1; K1, read-out: P. falc. IC50) was 2.72 µM and the MCC at 96 h ([3]; infected macrophages, read-out: Cytotox. mac.inf. IC50) was 28.4 µM. For the same compound, the IC50 ([4]; read-out: L. don. intracell IC50) was over 8.51 µM and the IC50 ([5]; L. donovani axenic amastigotes, read-out: L. don. axen. IC50) was 79.8 µM.

With `C[C@@H](c1ncncc1F)[C@](O)(Cn1cncn1)c1ccc(F)cc1F` [Voriconazole] the IC50 (Cytotoxicity on L6 cells; IC50 Cytotox. L6) was 195 µM, the IC50 ([1]; read-out: IC50 T. cruzi) was 11.2 µM and the IC50 [2] was over 286 µM. The IC50 (P. falciparum strain K1; K1, read-out: IC50 P. falc. K1) was over 143 µM, the IC50 at 96 h [3] was over 85.9 µM and the IC50 [4, 8] was over 85.9 µM. It also gave an IC50 [5, 9] of over 286 µM.

For `Cc1cn([C@H]2C[C@H](N=[N+]=[N-])[C@@H](CO)O2)c(=O)[nH]c1=O` [Zidovudine], the IC50 (Cytotoxicity on L6 cells; IC50 Cytotox. L6) was 207 µM, the IC50 ([1]; read-out: IC50 T. cruzi) was 156 µM and the IC50 [2] was 140 µM. It also gave an IC50 (P. falciparum strain K1; K1, read-out: IC50 P. falc. K1) of 175 µM, an IC50 at 96 h [3] of over 112 µM and an IC50 [4, 8] of over 112 µM. For the same compound, the IC50 [5, 9] was over 374 µM.
